Measurements: patent US20220233523A1, “ANTIBIOTIC POTENTIATION FOR NONTUBERCULOUS MYCOBACTERIAL DISEASE” (priority 2019, published 2022)
Entries after “also recorded” stand apart in the source; their conditions may differ. Marks after values point to notes of the source that are not given here.

Tests used:
Format in all cases: cell-based, Mycobacterium avium subsp hominissuis 104 (MAH104)
[1] = tested on: M. avium 104 static biofilms; test: Static biofilm formation in the presence of metabolites (crystal violet); conditions: for biofilm formation with 1% and 0.5% of fatty acid: 7H9, 7 days at 37° C., crystal violet
Experimental: Static biofilms were used in the present study as described previously (Rose S J, Bermudez L E., Infection and Immunity 2014; 82:405-12). Briefly, mycobacteria were taken from 7H10 agar plates and resuspended in deionized water (10^9 of colony forming units/ml; CFU/ml). The bacterial suspension was then washed 3 times with deionized water to remove any remaining of 7H10 media (3500 rpm for 20 minutes at 20° C.). After washing, the MAH104 were resuspended in 7H9 medium without any carbon sources (OADC, glycerol, tween 20 and tween 80) (non-supplemented 7H9) and suspensions were left alone to allow clumped bacteria to settle. The top half of the suspension was transferred to new tube and adjusted to 1×10^8 CFU/ml, using visual turbidity and optical density. Suspensions were inoculated in 96-well polystyrene plates (BD, Franklin Lakes, N.J.) (100 μl for each well [or 10^7 bacteria per well]) and biofilms were formed at 37° C. for 7 days or for 14 days when indicated. […] The raw O.D. at 570 nm values were discounted from O.D. 570 nm average of blank wells (wells with only 7H9 media).
(§1) Assays with biofilms incubated with propionic acid, butyric acid, and glycerol were performed to test whether these metabolites affect the formation of biofilms. All the experiments were made in non-supplemented 7H9. The effect of these metabolites was evaluated during biofilm formation, in pre-established biofilms and in M. avium cells pre-attached to polystyrene. To evaluate the effect of targeted metabolites during biofilm formation, mycobacteria suspensions were prepared and inoculated in 96 wells polystyrene plates, as already described, and biofilms were formed in the presence or not of the short-chain fatty acids at different concentrations (1%, 0.5%, 0.1%, 0.05% and 0.01%). For glycerol, only 0.2% was used. The biofilms were formed in 7H9 media at 37° C. for 7 days. For pre-established biofilms, MAH104 was again inoculated in 96 wells plates and biofilms were formed as described herein. […] It was also evaluated whether these metabolites could promote the growth of MAH104 cells present in biofilms through the measurement of […] every 24 hours. Finally, mycobacteria suspension with low density made in 7H9 broth (containing 1×10^6 bacteria/ml) were seeded in 96 wells polystyrene plates and incubated for 7 days at 37° C. […] The growth of pre-attached bacterial cells was followed every 24 hours through O.D.595 nm. The biofilm formation was evaluated by crystal violet.
The next step was to evaluate the capacity of tested substrates to promote the growth of mycobacteria cells that are present in biofilms. […] MAH 104 cells in the presence of non-supplemented 7H9 were used as a negative control. […]

sessile MAH104 cells = test: Growth and biofilm formation of pre-attached (sessile) cells in nutrient-limited media; conditions: for O.D.570 nm of sessile MAH104 (crystal violet, biofilm formation): 0.05% fatty acids in non-supplemented 7H9, 7 days, blank 0.091±0.007; for growth of sessile forms: 0.2% glycerol or 0.05% fatty acids in non-supplemented 7H9, 7 days at 37° C., O.D.595 nm
Experimental: as §1
Low mycobacterial cells density (10^6/ml) resuspended in non-supplemented 7H9 media were inoculated in 96-well plates and incubated for 7 days at 37° C. to allow the bacteria to attach into polystyrene. The supernatant was discarded to remove planktonic cells and pre-attached bacterium was incubated for 7 days in nutrient-limited media (non-supplemented 7H9). […] The growth of sessile mycobacteria was followed by O.D.595 nm measurement and biofilm formation was determined through crystal violet (O.D.570 nm), since the multiplication of bacteria cells is linked with the formation of biofilms. No growth was observed when sessile MAH104 cells were cultivated in non-supplemented 7H9 broth. […] It is also important to highlight that the O.D.570 nm value for sessile MAH104 forms incubated with non-supplemented 7H9 (O.D.570 nm=0.11±0.039) had no significant difference in comparison with the blank (O.D.570 nm=0.091±0.007) (P=0.37), showing no biofilm formation. […] FIG. 3A-D.

[2] = tested on: intracellular MAH 104 in THP-1 macrophages; test: Treatment of MAH inside human THP-1 macrophages with antibiotics and metabolites (CFU); conditions: for CFU/ml of macrophage lysate, 2 h: 2 h (baseline); for CFU/ml of macrophage lysate, 4 days: clarithromycin 16 μg/ml, amikacin 4 μg/ml, none 8.2 +/− 0.3 × 10^5
Experimental: Human THP-1 cell line (TIB-202) (American Type Culture Collection, Manassas, Va.) was cultivated in RPMI-1640 medium with 10% of heat-inactivated fetal bovine serum (FBS, GEMINI B10-PRODUCTS, Sacramento, Calif.), at 37° C. with 5% CO2. The THP-1 cells were maintained in 75 cm^2 tissue culture flasks. The differentiation of THP-1 monocytes into macrophages with PMA (phorbol 12-myristate 13-acetate) (SIGMA ALDRICH) and intracellular antibiotic killing assays were performed as previously described (Rojony et al., Clinical proteomics 2019; 16:39). […] As a negative control, differentiated THP-1 cells were incubated without any antibiotics and with no metabolites. THP-1 cells were replenished with new media containing antibiotics, or no antibiotic, every other day. Cells were lysed at 2 h (baseline) and day 4 and subsequently the number of viable bacteria was determined by CFU counting on 7H10 agar plates.

[3] = tested on: MAH (strain 104) in established biofilms; test: Treatment of established MAH biofilms with antibiotics and metabolites (CFU); conditions: for killing capacity of clarithromycin: established M. avium 104 biofilms, 72 hours, FIG. 4A-D; for CFU/ml at 14 days: established biofilms, clarithromycin 16 μg/ml, amikacin 4 μg/ml, 0.05% propionic or butyric acid, 0.2% glycerol, none 4.2 +/− 0.5 × 10^8
Experimental: To assess the antibiotic tolerance of MAH biofilms to amikacin (4 μg/ml) and clarithromycin (16 μg/ml), biofilms were formed for 14 days as described herein. […] As a negative control, biofilms were incubated only with non-supplemented 7H9 without any antibiotics. […] Subsequently, 100 μl of 0.02% of Triton X-100 (final concentration 0.01%) was added to the established biofilms to mix, dilute and perform CFU analysis with the entire population of biofilms (attached and unattached).
Mycobacteria biofilms were first established and then treated or not treated with antibiotics. In parallel, biofilms were also co-treated with antibiotics and the targeted metabolites.

[4] = tested on: pre-established MAH104 biofilms; test: Effect of metabolites on pre-established biofilms; conditions: for O.D.570 nm of pre-established biofilms (biofilm formation): 7 days at 37° C. with metabolite, 7H9 0.332±0.073
Experimental: as §1
Next, the effect of short-chain fatty acids and glycerol in pre-established biofilms was tested. In parallel, the O.D.595 nm of pre-established biofilm cultures were also measured for 7 days in order to check whether the bacterial cells in biofilm multiplied in the presence of the targeted substrates. […] In addition, we observed a significant increase in the biofilm formation (O.D.570 nm values) when mycobacteria biofilm was incubated with glycerol (7H9, O.D.570 nm=0.332±0.073; glycerol, O.D.570 nm=1.562±0.1751; P=0.0029).

| SMILES | biofilm formation with 1% and 0.5% of fatty acid [1] | O.D.570 nm of sessile MAH104 (crystal violet, biofilm formation) (sessile MAH104 cells) | growth of sessile forms (sessile MAH104 cells) | CFU/ml of macrophage lysate, 2 h [2] | CFU/ml of macrophage lysate, 4 days [2] | killing capacity of clarithromycin [3] | CFU/ml at 14 days [3] | O.D.570 nm of pre-established biofilms (biofilm formation) [4] | increase in biofilm formation in comparison with non-supplemented 7H9 ([1]; glycerol 0.2%, 7 days) [×] | O.D.595 nm of pre-established biofilm cultures ([4]; after 24 hours of culture, 7H9 media 0.452±0.049) | bacterial killing by clarithromycin and amikacin in macrophages after co-treatment ([2]; THP1 macrophages) |
| --- | --- | --- | --- | --- | --- | --- | --- | --- | --- | --- | --- |
| CCCC(=O)O [Butyric acid] | same results; also recorded: significant decrease | 0.32±0.02 | supported the growth of sessile forms | 2.0 +/− 0.4 × 10^5 CFU/ml | 8.4 +/− 0.5 × 10^5 CFU/ml | increase | 3.4 +/− 0.6 × 10^6* (1) CFU/ml | 0.490±0.121 | – | – | – |
| OCC(O)CO [Glycerol] | – | – | supported the growth of sessile forms | 3.1 +/− 0.4 × 10^5 CFU/ml | 2.0 +/− 0.5 × 10^5* (1) CFU/ml | increase | 1.1 +/− 0.3 × 10^9* CFU/ml | 1.562±0.1751 | 3.2 | 0.609±0.069 | – |
| CCC(=O)O [Propionic acid] | unable to form biofilm; also recorded: significant decrease | 0.25±0.01 | supported the growth of sessile forms | 2.0 +/− 0.4 × 10^5 CFU/ml | 8.0 +/− 0.2 × 10^5 CFU/ml | increase | 5.5 +/− 0.4 × 10^6*(1) CFU/ml | 0.3855±0.048 | – | – | increased significantly |
